Here are results for 19 molecules from patent US20100216795A1, “TNIK INHIBITOR AND THE USE” (priority 2008, published 2010).

The IC50 is the point on the concentration scale where inhibition reaches its midpoint.

In the first data set the target is T1, human TNIK (N-terminal segment, TNIK_N) (Homo sapiens, UniProt Q9UKE5).
T1 construct: made in house; host or cells: Sf21 insect cells (baculovirus)
T1 sequence (Q9UKE5 1-314): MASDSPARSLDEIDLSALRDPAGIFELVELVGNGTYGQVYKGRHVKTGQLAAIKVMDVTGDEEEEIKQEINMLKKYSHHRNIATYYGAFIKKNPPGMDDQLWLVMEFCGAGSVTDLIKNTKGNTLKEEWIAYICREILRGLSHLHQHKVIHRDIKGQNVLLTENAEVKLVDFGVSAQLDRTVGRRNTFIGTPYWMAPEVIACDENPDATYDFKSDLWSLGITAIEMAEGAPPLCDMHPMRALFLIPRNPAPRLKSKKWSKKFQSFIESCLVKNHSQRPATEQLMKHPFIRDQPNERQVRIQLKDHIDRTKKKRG
The experiment in a line: TNIK kinase assay (mobility shift). Type of data set: biochemical. The note with it: 25 μM ATP, 1 h at room temperature. The text has this: A cDNA encoding the N-terminal segment (TNIK_N, residues 1-314) containing the kinase domain of human TNIK (NM_015028.1) was amplified from cDNA mixture synthesized from human tissue (Biochain) by PCR using the following primers: 5′-[…]-3′ ([SEQ ID NO:1]: forward primer, the underlined nucleotides indicates the location of a EheI site); 5′-[…]-3′ ([SEQ ID NO:2]: reverse primer, the underlined nucleotides indicates the location of a NotI site). The cDNA was subcloned into baculovirus transfer vector pFastBac_GSTb that includes protease cleavage site and glutathione S-transferase purification tag (GST-tag). The plasmid was purified and the insertion of the pFastBac_GSTb-TNIK_N was confirmed by DNA sequencing. Then E. coli DH10Bac competent cells were transformed with the plasmid to prepare the recombinant bacmid according to the instructions for the Bac-to-Bac™ baculovirus expression systems (Invitrogen). The Sf9 cells were transfected with the recombinant bacmid containing pFastBac_GSTb-TNIK_N using Cellfectin Reagent (Invitrogen) in SF-900II serum free media (Invitrogen). The viral supernatant was collected from the medium 72 h after transfection. The virus was amplified three times by infecting actively growing Sf9 or Sf21 cells in Grace's insect media (Invitrogen) supplemented with 10% FCS and an antibiotic-antimycotic reagent (Invitrogen) for 72 h at 27° C. in T-flask or roller bottles. The titer of amplified TNIK_N virus was estimated at 2.36×10^8 pfu/ml by using BacPAK™ Baculovirus Rapid Titer kit (Clontech).
Log-phase Sf21 cells (2×10^6 cells/ml) in the Grace's insect media were infected with the recombinant baculovirus at MOI of 3.0 and incubated in roller bottles (250 ml media per bottle) for 72 h at 27° C., after which, the cells were collected by centrifugation, and the cell pellet washed with cold PBS and kept at −80° C. until purification. The following purification procedures were carried out at 4° C. The frozen cells were thawed on ice and lysed in lysis buffer (50 mM Tris-HCl, pH 7.5, 150 mM NaCl, 1% Nonidet P-40, 5 mM DTT, 0.5 mM EDTA, 0.5 mM EGTA) supplemented with 1 mM phenylmethansulfonylfluoride, 2 μg/ml leupeptin, 2 μg/ml aprotinin, 1 mM NaF, 100 μM sodium orthovanadate, and 1 μM cantharidin by sonication. The suspended lysate was cleared by centrifugation at 9000 g for 20 min and the supernatant was incubated for 1 h with glutathione Sepharose beads (GE Healthcare). The beads were suspended in buffer-H (50 mM Tris-HCl, pH 7.5, 1 M NaCl, 1 mM DTT, 0.5 mM EDTA, 0.5 mM EGTA and 0.05% Brij35) and washed with buffer-H followed by buffer-L (50 mM Tris-HCl, pH 7.5, 150 mM NaCl, 1 mM DTT, 0.5 mM EDTA, 0.5 mM EGTA, 0.05% Brij35) in an Econo-pack column (BIO-RAD). The bound TNIK_N was eluted with elution buffer (50 mM Tris-HCl, pH 8.0, 150 mM NaCl, 1 mM DTT, 10% glycerol, 0.5 mM EDTA, 0.5 mM EGTA and 5 mM reduced glutathione). The eluted fractions were collected and determined the protein concentration by Bradford reagent (BIO-RAD). The TNIK_N fractions were pooled and desalted using 10DG column (BIORAD) equilibrated with the storage buffer (50 mM Tris-HCl, pH 7.5, 150 mM NaCl, 1 mM DTT, 10% glycerol, 0.05% Brij35). The purified TNIK_N was characterized by electrophoresis using 4-20% polyacrylamide gels and matrix-assisted laser desorption/ionization reflection time-of-flight (MALDI-TOF) mass spectrometry on a Voyager-DE RP MALDI/TOF (Applied Biosystems). TNIK_N was confirmed by the molecular weight and MASCOT Peptide Mass Fingerprint.
The kinase assays were conducted in a 20 μl volume using 384-well plates (Greiner). The reaction mixture consists of compound or vehicle (1% DMSO), 0.08 ng/μl TNIK_N, 1 μM FITC-labeled substrate peptides, FITC-x-Lys-Tyr-Lys-Thr-Leu-Arg-Gln ([SEQ ID NO.3], x: ε-aminocaproic acid), 20 mM Hepes, pH 7.5, 0.01% Triton X-100, 5 mM MgCl2, 25 μM ATP and 2 mM DTT. As blank, TNIK_N was excluded from the reaction mixture of vehicle (1% DMSO). […]
For `COc1ccc(C(=O)Nc2sc(Nc3ccncc3)nc2C(N)=O)cc1` [Compound A47, 5-(4-methoxybenzamido)-2-(pyridin-4-ylamino) thiazole-4-carboxamide], the IC50 is 3 nM.

For the molecule `NC(=O)c1nc(Nc2ccncc2)sc1NC(=O)c1ccc(F)cc1` [Compound A76, 5-(4-fluorobenzamido)-2-(pyridin-4-ylamino) thiazole-4-carboxamide], the IC50 came out at 7 nM.

Turning to `COc1ccc(Nc2nc(C(N)=O)c(NC(=O)c3ccc(NCCO)cc3)s2)cc1` [Compound A23, 5-[4-(2-hydroxyethylamino)benzamido]-2-(4-methoxyphenylamino)thiazole-4-carboxamide], the IC50 was determined as 8 nM.

Turning to `COc1ccc(C(=O)Nc2sc(Nc3ccccc3)nc2C(N)=O)cc1` [Compound 4, 5-(4-methoxybenzamido)-2-(phenylamino)thiazole-4-carboxamide], the IC50 worked out at 10 nM.

`CC(=O)Nc1ccc(C(=O)Nc2sc(Nc3ccc(N)cc3)nc2C(N)=O)cc1` [Compound A19, 5-(4-acetamidobenzamido)-2-(4-aminophenyl-amino)thiazole-4-carboxamide]: the IC50 stood at 24 nM.

For `COCCNc1ccc(C(=O)Nc2sc(Nc3ccc(OC)cc3)nc2C(N)=O)cc1` [Compound A31, 5-[4-(2-methoxyethylamino)benzamido]-2-(4-methoxyphenylamino)thiazole-4-carboxamide], the half-maximal inhibitory concentration (IC50) came out at 10 nM.

As for `COc1ccc(Nc2nc(C(N)=O)c(NC(=O)c3ccc(N4CCC(CO)CC4)cc3)s2)cc1` [Compound A43, 5-{4-[4-(hydroxymethyl)piperidin-1-yl]benzamido}-2-(4-methoxyphenylamino)thiazole-4-carboxamide], the half-maximal inhibitory concentration (IC50) is 13 nM.

In the case of `COc1ccc(Nc2nc(C(N)=O)c(NC(=O)c3ccc(N4CCN(C)CC4)cc3)s2)cc1` [Compound A22, 2-(4-methoxyphenylamino)-5-[4-(4-methyl-piperazin-1-yl)benzamido]thiazole-4-carboxamide], the IC50 was determined as 15 nM.

On to `CC(=O)Nc1ccc(C(=O)Nc2sc(Nc3ccc(F)cc3)nc2C(N)=O)cc1` [Compound A4, 5-(4-acetamidobenzamido)-2-(4-fluorophenyl-amino)-thiazole-4-carboxamide], for which the half-inhibitory concentration (IC50) worked out at 18 nM.

For the molecule `COc1ccc(Nc2nc(C(N)=O)c(NC(=O)c3ccc(OC)cc3)s2)cc1` [Compound A46, 5-(4-methoxybenzamido)-2-(4-methoxyphenyl-amino)thiazole-4-carboxamide], the IC50 is 16 nM.

Regarding `CC(=O)Nc1ccc(C(=O)Nc2sc(Nc3ccccc3C)nc2C(N)=O)cc1` [Compound A9, 2-(o-toluidino)-5-(4-acetamidobenzamido) thiazole-4-carboxamide], the IC50 is 18 nM.

Regarding `COc1ccc(Nc2nc(C(N)=O)c(NC(=O)c3ccc(N)c(N)c3)s2)cc1` [Compound A103, 5-(3,4-diaminobenzamido)-2-(4-methoxyphenyl-amino)thiazole-4-carboxamide], the IC50 was determined as 10 nM.

On to `COc1ccc(Nc2nc(C(N)=O)c(NC(=O)c3ccc(CN4CCN(C)CC4)cc3)s2)cc1` [Compound A44], for which the concentration for half-maximal inhibition (IC50) was 11 nM.

For the molecule `COc1ccc(C(=O)Nc2sc(Nc3ccnc(F)c3)nc2C(N)=O)cc1` [Compound A92, 2-(2-fluoropyridin-4-ylamino)-5-(4-methoxy-benzamido)thiazole-4-carboxamide], the half-inhibitory concentration (IC50) is 3 nM.

Consider `Cc1ccc(Nc2nc(C(N)=O)c(NC(=O)c3ccccc3Cl)s2)cc1` [Compound 11, 2-(p-toluidino)-5-(2-chlorobenzamido)thiazole-4-carboxamide], for which the IC50 stood at 1700 nM.

In the case of `NC(=O)c1nc(Nc2cccnc2)sc1NC(=O)c1ccc(NCCc2ccncc2)cc1` [Compound A84, 2-(pyridin-3-ylamino)-5-{4-[2-(pyridin-4-yl)ethyl-amino]benzamido}thiazole-4-carboxamide], the IC50 stood at 2 nM.

Take `CN1CCN(c2ccc(C(=O)Nc3sc(Nc4cccnc4)nc3C(N)=O)cc2)CC1` [Compound A74, 5-[4-(4-methylpiperazin-1-yl)benzamido]-2-(pyridin-3-ylamino)thiazole-4-carboxamide]: the 50% inhibitory concentration (IC50) came to 7 nM.

With `COc1ccc(Nc2nc(C(N)=O)c(NC(=O)c3ccc(NC(=O)CN4CCN(C)CC4)cc3)s2)cc1` [Compound A42, 2-(4-methoxyphenylamino)-5-{4-[2-(4-methyl-piperazin-1-yl)acetamido]benzamido}thiazole-4-carboxamide], the IC50 came out at 18 nM.

The next data set has as its system HCT-116 cells. The experiment in a line: HCT-116 xenograft growth after intratumoral siRNA. The note with it: HCT-116 tumours, 18 days after the injection of siRNA. Type of data set: in vivo, BALB/c nu/nu nude mice. Here is the method:
We next examined the effects of TNIK on the growth of human colon cancer cells in vivo (FIG. 2). HCT-116 cells were implanted in the flank of immunodeficient mice. One week after the inoculation, siRNA against TNIK (12 or 13) mixed with atelocollagen (Takeshita, F. et al. Efficient delivery of small interfering RNA to bone-metastatic tumors by using atelocollagen in vivo. Proc Natl Acad Sci USA 102, 12177 (2005)) was injected directly into the tumours (224.5±8.9 mm^3 in size). Three days after the siRNA injection, some tumours were excised and the silencing of TNIK mRNA was confirmed by real-time PCR (FIG. 2b). The volume of xenografts was monitored for 18 days after siRNA injection (FIG. 2a). […] We observed similar regression of established tumours after a single injection of siRNA against TNIK in two other colorectal cancer cell lines, DLD1 and WiDr (FIGS. 3 and 4).
a, HCT-116 cells were inoculated into BALB/c nu/nu nude mice subcutaneously. The developed tumours were not treated, or treated with only atelocollagen, control RNA (X or IX) or siRNA against TNIK (12 or 13). The volume of tumours (n=8 per group) was monitored as indicated. #, P<0.001 (Mann-Whitney U-test); Bars, SE; N.S., not significant. b, mRNA expression of TNIK in tumours injected with siRNA (n=3 per group). c, d, Representative appearance of mice and excised tumours 18 days after the injection of siRNA. Columns indicate the average weight of excised tumours (n=8 per group). $, P<0.005 (Mann-Whitney U-test); Bars, SE.
5×10^6 HCT-116, DLD1 or WiDr cells suspended in 0.1 ml of PBS were subcutaneously inoculated into the flanks of 5-week-old female BALB/c nu/nu nude mice (SLC, Tokyo, Japan). One week later the developed tumours were treated with siRNA together with atelocollagen (AteloGene; KOKEN, Tokyo, Japan) (Takeshita, F. et al. Efficient delivery of small interfering RNA to bone-metastatic tumors by using atelocollagen in vivo. Proc Natl Acad Sci USA 102, 12177 (2005)). The final concentration of siRNA was 30 μM and that of atelocollagen was 0.5%. A 0.2-ml volume of siRNA solution was injected directly into each tumour. Tumour volume was determined as V=A×[…], where A and B represent the largest and smallest dimensions (Bergers, G et al. Effects of angiogenesis inhibitors on multistage carcinogenesis in mice. Science 284, 808 (1999)).
Regarding “siRNA against TNIK (12): small interfering RNA against TNIK, sense 5′-CGACAUACCCAGACUGAUAUU-3′, synthesized by Dharmacon (antisense UAUCAGUCUGGGUAUGUCGUU; listed as RNA, chemistry not given here)”, the “excised tumours versus not treated, atelocollagen only or control RNA” value was “significantly smaller”.

The data set is the same for the next values; noted with them: HCT-116 tumours, single injection of siRNA with atelocollagen into the tumour, monitored 18 days.
Take “siRNA against TNIK (12): small interfering RNA against TNIK, sense 5′-CGACAUACCCAGACUGAUAUU-3′, synthesized by Dharmacon (antisense UAUCAGUCUGGGUAUGUCGUU; listed as RNA, chemistry not given here)”: the volume of xenografts entry is on record as “regressed almost completely”.
